# Experimental data reported in publication PMC8704709, “Improved Anticancer Activities of a New Pentafluorothio-Substituted Vorinostat-Type Histone Deacetylase Inhibitor” (Pharmaceuticals, 2021).
# Legend:
# Hep-G2 cells [1] = assay: Cytosolic ROS formation (CellROX Orange fluorescence microscopy); format: cell-based, human; details: 6–24 h
# Protocol: (§1) Untreated cells incubated with 1.6 mM H2O2 for 30 min served as positive controls. CellROX® Orange reagent (1 µM) was applied, when adding the test compounds. Formation of ROS was measured after 3 h, 6 h, 12 h (not shown) and 24 h using ZOE™ Fluorescent Cell Imager (Biorad, Munich, Germany). n = 3 independent experiments performed in triplicate for each condition.
# DU145 cells [2] = assay: as above; format: cell-based, human; details: 6–24 h
# Protocol: as §1
# [3] = tested on: caspase-3 activity in DU145 cells; assay: Apoptosis-specific caspase-3 activation (AC-DEVD-AMC cleavage); format: cell-based, human; details: 24 h treatment, 1–10 µM
# Protocol: (§2) Changes in caspase-3 activity were measured by the cleavage of the fluorogenic substrate AC-DEVD-AMC (EMD Millipore, Billerica, MA, USA), as described previously. […] Subsequently, the lysates were incubated for 1 h at 37 °C with a substrate solution containing 20 μg/mL AC-DEVD-AMC, 20 mM HEPES, 10% glycerol and 2 mM DTT at pH 7.5.
# [4] = tested on: caspase-3 activity in Hep-G2 cells; assay: as above; format: cell-based, human; details: 24 h treatment, 1–10 µM
# Protocol: as §2
# DU145 cells [5] = assay: Unspecific cytotoxicity (LDH release); format: cell-based, human; details: 1–10 µM, 3 and 24 h
# Protocol: To exclude unspecific cytotoxicity as the driving mode of action for antiproliferative effects, the release of lactate dehydrogenase (LDH) from DU145 cells was determined after 3 h and 24 h of treatment using the Cytotoxicity Detection Kit PLUS LDH (Roche Diagnostics GmbH, Mannheim, Germany). The assay was performed as described earlier. Cytotoxicity was determined by subtracting the percentage of LDH release into the supernatant under control conditions of those from treated samples. Measurements were performed in duplicate in n = 3 independent experiments and mean percentage changes ± SEM as compared to controls are shown.
# DU145 cells [6] = assay: Western blot in DU145 cells (acetyl-H3, PARP, EGFR, P-mTOR); format: cell-based, human; details: 24 h
# Protocol: (§3) Western blots were performed as described earlier. Cells were seeded in 100 mm petri dishes, grown to almost confluency, treated for 24 h, washed and frozen, followed by lysis with RIPA Buffer, added with one cOmplete™ Mini protease Inhibitor tablet/10 mL (Roche), and quantification with Pierce^TM BCA Protein Assay Kit (Thermo Fisher Scientific). Thereafter protein levels were normalized to untreated controls so equal protein loading of 20 µg/lane. Laemmli Buffer and β-mercaptoethanol were added before probes were desaturated at 96 °C for 10 min. First, 7.5% or 12% SDS gels (Biorad, Munich, Germany) were loaded with proteins and electrophoresis was done. Thereafter, proteins were transferred to activated polyvinylidene difluoride membranes (PVDF) by electroblotting. Finally, the membranes were blocked with 1% BSA and incubated with primary antibodies over night at 4 °C.
# (§4) Blots were washed three times with 1% TBS-Tween and incubated with anti-mouse or anti-rabbit peroxidase-coupled anti-IgG secondary antibodies (1:5000–1:10,000) at room temperature for 60 min. Subsequently, antibody bondage was illustrated using Clarity and Clarity Max ECL Western Blotting Substrates (Biorad, Munich, Germany) for detection and Celvin-S developer (Biostep, software SnapAndGo Vs 1.8.1) for development. […] Values were normalized to β-actin expression, which served as a loading control and compared to untreated control expressions which was set at 1. The mean ± SEM of the relative values to control are illustrated with Graph Pad Prism 8.
# Hep-G2 cells [7] = assay: Unspecific cytotoxicity (LDH release); format: cell-based, human; details: 1–10 µM, 3 and 24 h
# SMZ1 cells = assay: IC50 by Annexin-V/7AAD dual staining, flow cytometry; format: cell-based; details: Homo sapiens, as determined after 48 h, means ± SEM, n ≥ 3, read-out: Growth inhibitory activity IC50, SMZ1
# Protocol: Stock solutions (10 mM) prepared by dissolution in DMSO were stored at −20 °C. Working solutions were always freshly prepared before each experiment by dilution of stock solution with medium. The final DMSO concentration never exceeded 0.25%. Treatment-induced changes in cell number were determined by crystal violet (N-hexamethylpararosaniline from Sigma Aldrich) staining. 1000 cells/well (DU145) or 1500 cells/well (Hep-G2) were seeded in 96-well plates and maintained for adherence in an incubator (37 °C, 5% CO2, humidified atmosphere) for 48 h prior to the beginning of the treatment. […] Thereafter, the cells were fixed with 1% glutaraldehyde and stained with 0.1% crystal violet. The unbound dye was removed by rinsing with water. Bound crystal violet was solubilized with 0.2% Triton X-100 (Sigma-Aldrich). Light extinction of crystal violet, which increases linearly with the cell number, was analyzed at 570 nm using an ELISA-Reader (Dynex Technologies, Denkendorf, Germany). For T-cell leukemia/lymphoma cell lines apoptosis was determined using dual staining for Annexin-V and 7AAD via flow cytometry.
# Hep-G2 cells [8] = assay: Western blot in Hep-G2 cells (acetyl-H3, Apaf-1, Bcl-2); format: cell-based, human; details: 24 h
# Protocol: as §3, with “°C. […] Only the Jurkat cells had already a high level of α-tubulin in untreated cells and, thus, drug-induced changes were not detectable in these cells.” for “°C.”
# as §4
smiles,measurement,setting,value
"O=C(CCCCCCC(=O)Nc1ccccc1)NO [SAHA, suberoylanilide hydroxamic acid, reference compound]",cytosolic ROS formation,Hep-G2 cells [1],much weaker ROS increase
same,cytosolic ROS formation,DU145 cells [2],much weaker ROS increase
same,caspase-3 activation,[3],comparable caspase-3 inductions
same,caspase-3 activation,[4],comparable caspase-3 inductions
same,LDH release (unspecific cytotoxicity),DU145 cells [5],no relevant induction of unspecific cytotoxicity
same,EGFR protein expression,DU145 cells [6],pronounced and significant suppression in the expression of the EGFR
same,acetylated histone H3 level,DU145 cells [6],dose-dependent rise of H3 acetylation
same,LDH release (unspecific cytotoxicity),Hep-G2 cells [7],no relevant induction of unspecific cytotoxicity
same,IC50,SMZ1 cells,2870 ± 330 nM
same,acetylated histone H3 level,Hep-G2 cells [8],dose-dependent rise of H3 acetylation
